According to US6723702B2, “Use of relaxin treat diseases related to vasoconstriction” (RAS Medical, Inc., priority 2000, dated 2004):

Tests used:
Format in all cases: in vivo, rat
conscious rats [1] = assay: Acute infusion of L-NAME during chronic infusion of purified porcine RLX; settings: RLX 4 μg/hour s.c. day 5
Procedure: (§1) At least 7 days after the implantation of vascular and bladder catheters, osmotic minipumps containing either porcine RLX (4 μg/hour) or vehicle (Ringer's solution) were implanted in intact, female rats (n=7 and 6 rats, respectively). Renal function and MAP were measured on day 5 of relaxin infusion (three 30-minute urine and midpoint blood collections). Next, an infusion of L-NAME (2 μg/minute, a substrate competitive inhibitor of NO synthase) was administered intravenously (i.v.) by infusion pump (Model 200, KD Scientific, Boston, Mass.). Four 1-hour urine collections with midpoint blood samples were collected for the assessment of GFR, ERPF, and ERVR during the L-NAME administration. Identical procedures were performed on additional animals chronically administered porcine RLX (n=5) or vehicle (n=5), except that ANG II (3 ng/minute) was infused rather than L-NAME. Finally, another four, age-matched control rats were administered Ringer's solution instead of either L-NAME or ANG II on day 5 of porcine RLX infusion.
MAP, GFR, ERPF, and ERVR were measured at time zero (baseline), and at 60, 120, 180, and 240 minutes after administering L-NAME and either RLX or vehicle alone. Values represent the mean±SEM. L-NAME (Nω-nitro-L-arginine methyl ester) was infused at 2 μg/minute intravenously, and relaxin was administered at 4 μg/hour by osmotic minipump subcutaneously. There were 7 and 6 rats, respectively, in the RLX and vehicle groups. An asterisk denotes p<0.05; the symbol H denotes p<0.05 for RLX vs. vehicle.

conscious rats [2] = assay: Ringer's solution time control during chronic infusion of porcine RLX; settings: RLX 4 μg/hour s.c. day 5
Procedure: as §1
Another group of rats chronically treated with porcine RLX was administered Ringer's solution instead of L-NAME or ANG II, and thus served as time controls. Neither MAP nor any of the renal parameters were consistently altered over the 6 hours or so of vehicle infusion, as shown in Table 3. Values are provided as mean±SEM. Relaxin, RLX. n=4 rats. Ringer's solution was infused at the same flow rate as L-NAME (Table 1) or ANG II (Table 2), 12.5 μl/min. RLX was infused at 4 μg/hour by osmotic minipump s.c.

female rats = assay: rhRLX for 5 days in female rats with infusion of ETB receptor antagonist RES-701-1 or its vehicle
Procedure: After surgical recovery, an osmotic minipump (model 2ML1, Alza Co., Palo Alto Calif.) containing either recombinant human relaxin (rhRLX; n=9 rats) or vehicle (n=8) was implanted subcutaneously on the back using light ether anesthesia. The infusion rate of rhRLX was 4 μg/hour. Experiments were conducted on day 5 of rhRLX or vehicle administration. MAP and renal function were measured as described above.
The technique of urine collection was again reliable. After reaching steady-state, the excretion rates of IN and PAH at baseline were 99±3 and 100±2% of their respective infusions for the rats administered rhRLX, and 100±2 and 99±2% for those given vehicle. Following the determination of baseline MAP and renal function, an infusion of RES-701-1, a selective endothelin type B (ETB) receptor antagonist (Conrad et al. (1999) Am. J. Physiol. 272:F767-F776; and Tanaka et al. (1994) Mol. Pharmacol. 45:724-730), was started at a rate of 10 μg/minute (flow rate 12 μl/minute) through the venous catheter. […] At the end of the experiment, 1.0 ml of blood was collected for determination of serum rhRLX.
In an additional three rats each administered rhRLX or vehicle, identical experimental procedures as described above were applied, except that the vehicle for RES-701-1 was infused instead of RES-701-1.

[3] = L-NAME 2 μg/minute i.v., 60 min
[4] = L-NAME 2 μg/minute i.v., 120 min
[5] = L-NAME 2 μg/minute i.v., 180 min
[6] = L-NAME 2 μg/minute i.v., 240 min
[7] = Baseline before Ringer's solution
[8] = Ringer's solution 12.5 μl/min, 60 min
[9] = Ringer's solution 12.5 μl/min, 120 min
[10] = Ringer's solution 12.5 μl/min, 180 min
[11] = Ringer's solution 12.5 μl/min, 240 min
[12] = rhRLX day 5, V, vehicle for RES-701-1

Q: For “Porcine RLX: lyophilized, purified porcine relaxin (Sherwood and O'Byrne 1974), dissolved in Ringer's solution”, which ERPF (conscious rats [1]; Baseline before L-NAME) is on record?
A: 10245

Q: What about the ERVR (conscious rats [1]; Baseline before L-NAME) of the same substance?
A: 6.96

Q: And the GFR (conscious rats [1]; Baseline before L-NAME)?
A: 3050

Q: What about the “MAP (mean arterial pressure)” value (conscious rats [1]; Baseline before L-NAME) of the same substance?
A: 120

Q: What about the ERPF (conscious rats [1]; [3]) of the same substance?
A: 7520

Q: What about the ERVR (conscious rats [1]; [3]) of the same substance?
A: 11.00

Q: And the GFR (conscious rats [1]; [3])?
A: 2776

Q: What about the “MAP (mean arterial pressure)” value (conscious rats [1]; [3]) of the same substance?
A: 135

Q: And the ERPF (conscious rats [1]; [4])?
A: 7030

Q: And the ERVR (conscious rats [1]; [4])?
A: 11.87

Q: And the GFR (conscious rats [1]; [4])?
A: 2653

Q: And the “MAP (mean arterial pressure)” value (conscious rats [1]; [4])?
A: 136

Q: And the ERPF (conscious rats [1]; [5])?
A: 6530

Q: What about the ERVR (conscious rats [1]; [5]) of the same substance?
A: 12.92

Q: What about the GFR (conscious rats [1]; [5]) of the same substance?
A: 2498

Q: And the “MAP (mean arterial pressure)” value (conscious rats [1]; [5])?
A: 136

Q: What about the ERPF (conscious rats [1]; [6]) of the same substance?
A: 5973

Q: And the ERVR (conscious rats [1]; [6])?
A: 14.13

Q: What about the GFR (conscious rats [1]; [6]) of the same substance?
A: 2392

Q: And the “MAP (mean arterial pressure)” value (conscious rats [1]; [6])?
A: 139

Q: And the ERPF (conscious rats [2]; [7])?
A: 12,927

Q: What about the ERVR (conscious rats [2]; [7]) of the same substance?
A: 5.93

Q: And the GFR (conscious rats [2]; [7])?
A: 2997

Q: What about the MAP (conscious rats [2]; [7]) of the same substance?
A: 119

Q: And the ERPF (conscious rats [2]; [8])?
A: 12,630

Q: And the ERVR (conscious rats [2]; [8])?
A: 6.19

Q: And the GFR (conscious rats [2]; [8])?
A: 3008

Q: What about the MAP (conscious rats [2]; [8]) of the same substance?
A: 123

Q: What about the ERPF (conscious rats [2]; [9]) of the same substance?
A: 12,347

Q: What about the ERVR (conscious rats [2]; [9]) of the same substance?
A: 6.40

Q: What about the GFR (conscious rats [2]; [9]) of the same substance?
A: 3086

Q: What about the MAP (conscious rats [2]; [9]) of the same substance?
A: 121

Q: What about the ERPF (conscious rats [2]; [10]) of the same substance?
A: 12,353

Q: What about the ERVR (conscious rats [2]; [10]) of the same substance?
A: 6.52

Q: What about the GFR (conscious rats [2]; [10]) of the same substance?
A: 3077

Q: What about the MAP (conscious rats [2]; [10]) of the same substance?
A: 122

Q: What about the ERPF (conscious rats [2]; [11]) of the same substance?
A: 12,090

Q: And the ERVR (conscious rats [2]; [11])?
A: 6.53

Q: What about the GFR (conscious rats [2]; [11]) of the same substance?
A: 3223

Q: What about the MAP (conscious rats [2]; [11]) of the same substance?
A: 121

Q: How did the ERPF (female rats; rhRLX day 5, B, baseline) turn out when “rhRLX: recombinant human relaxin, identical in amino acid sequence to the product of the human H2 gene; A chain of 24, B chain of 29 amino acids” was run?
A: 11220

Q: And the ERVR (female rats; rhRLX day 5, B, baseline)?
A: 6.67

Q: What about the GFR (female rats; rhRLX day 5, B, baseline) of the same substance?
A: 3082

Q: And the MAP (female rats; rhRLX day 5, B, baseline)?
A: 112 ± 7

Q: And the ERPF (female rats; [12])?
A: 10464

Q: What about the ERVR (female rats; [12]) of the same substance?
A: 6.97

Q: What about the GFR (female rats; [12]) of the same substance?
A: 3112

Q: What about the MAP (female rats; [12]) of the same substance?
A: 115 ± 8

Q: What about the “ERPF at baseline compared to vehicle infusion” value (female rats; rhRLX for 5 days (FIG. 4)) of the same substance?
A: significantly increased

Q: And the “ERVR reduction at baseline compared to vehicle infusion” value (female rats; rhRLX for 5 days (FIG. 4))?
A: 20-30%

Q: What about the “GFR at baseline compared to vehicle infusion” value (female rats; rhRLX for 5 days (FIG. 4)) of the same substance?
A: significantly increased

Q: And the “MAP at baseline compared to vehicle infusion” value (female rats; rhRLX for 5 days (FIG. 4))?
A: not significantly affected
